Experimental data taken from patent publication US20210268122A1, “INHIBITION OF S[…] PROTEIN INHIBITORS OF CYSTEINE PROTEASES” (DYVE BIOSCIENCES, INC., priority 2017, published 2021).
Where two headings read alike, the source gives them in different places.

Legend:
LL/2 cells = conditions: SCID-beige mice, 1×10^6 LL/2 cells intravenously; treatment for 120 days
Description: In vivo tests were performed as follows: SCID-beige mice aged 6 weeks were injected intravenously with 1×10^6 LL/2 cells.
The treatment groups were:
Group A (Negative Control): Untreated
Volumes of primary tumors were measured twice weekly.

MDA-MB-231/eGFP cells [1] = conditions: Example 14, Ncr nude mice
MDA-MB-231/eGFP cells [2] = test system: MDA-MB-231/eGFP cells
cysteine cathepsin = conditions: after intra-peritoneal injections; cited from earlier work
RIP1-Tag2 mice = conditions: 100 μL topically once daily
Description: Trial design was built to assess these primary outcomes: the effects on angiogenesis and tumor growth. Treatment groups randomized as follows:
Each applied topically once daily. Formulations are detailed below:

[3] = test system: MMTV-PyMT-transgenic mouse model; conditions: cited from earlier work
[4] = gross necropsy at end of 120 day survival experiment
[5] = Example 13, Ncr nude mice, gross necropsy at end of 120 day survival experiment

Compound	mice surviving to 120 days (LL/2 cells) [%]	% of mice surviving to 120 days (MDA-MB-231/eGFP cells [1]; MDA-MB-231/eGFP orthotopic) [%]	metastatic rate, intestinal (MDA-MB-231/eGFP cells [1]; [4]) [%]	metastatic rate, lung (MDA-MB-231/eGFP cells [1]; [4]) [%]	metastatic rate, lymph node (MDA-MB-231/eGFP cells [1]; [4]) [%]	metastatic rate, mesentery (MDA-MB-231/eGFP cells [1]; [4]) [%]	% of mice surviving to 120 days (MDA-MB-231/eGFP cells [2]; Example 13, Ncr nude mice, MDA-MB-231/eGFP orthotopic) [%]	metastatic rate, intestinal (MDA-MB-231/eGFP cells [2]; [5]) [%]	metastatic rate, lung (MDA-MB-231/eGFP cells [2]; [5]) [%]	metastatic rate, lymph node (MDA-MB-231/eGFP cells [2]; [5]) [%]	metastatic rate, mesentery (MDA-MB-231/eGFP cells [2]; [5]) [%]	primary tumor growth rates (MDA-MB-231/eGFP cells [2]; Example 13, compared among all active groups B, C, D, E)	cysteine cathepsin activities in mammary and in lungs (cysteine cathepsin)	cysteine cathepsin activities in pancreas, kidney, and liver (cysteine cathepsin)	reduction in the number of angiogenic islets relative to the Control Group (RIP1-Tag2 mice; at 10.5 weeks of age) [%]	reduction of cumulative tumor volume relative to the Control Group (RIP1-Tag2 mice; at 14.5 weeks of age) [%]	activity against early and advanced mammary cancer stages [3]
O=C([O-])O.[Na+] [Group B (Oral Buffer, Positive Control), sodium bicarbonate]	20	60	0	8	27	0	60	0	8	27	0	the same	–	–	–	–	–
JPM-OEt	–	–	–	–	–	–	–	–	–	–	–	–	not significantly affected	effective inhibition	49	67	active
